Measured values taken from US20030229072A1, “Cyclic and acyclic amidines and pharmaceutical compositions containing them for use as progesterone receptor binning agents” (priority 2000, published 2003).

SMILES: Cc1cc([N+](=O)[O-])ccc1/N=C1/C2CC3CC(C2)CC(C3)N1CC(C)C [Example 54, N-(4-Isobutyl-4-azatricyclo[4.3.1.1^3,8]undec-5-ylidene)-2-methyl-4-nitroaniline]
- melting point: 101 to 102 °C
